Experimental data as given in patent US8796246B2, “9, 10-secopregnane derivative and pharmaceutical” (Nippon Shinyaku Co., Ltd., priority 2006, dated 2014).

Key:
[1] = system: human acute myelogenous leukemia cell line HL-60; test: Ability to induce differentiation of HL-60 cells (oxygen radical production after phorbol ester, WST-1); format: cell-based; details: 72 hours incubation, then WST-1 and phorbol 12,13-didecanoate for 4 hours, absorbance at 450 nm
Text: It is known that the human acute myelogenous leukemia cell line HL-60is differentiated into neutrophil-like cells by active vitamin D or the like. Thus, the cells after the differentiation begin to express a surface marker such as CD11and CD32and, at the same time, they produce an oxygen radical by stimulation with a phorbol ester or the like. In this test, the above-mentioned property was utilized. As an index of the ability to induce differentiation of the HL-60cells, the amount of the oxygen radical produced by stimulation with a phorbol ester was measured, and the compounds of the invention mentioned in Examples were compared with maxacalcitol with respect to the vitamin D3activity thereof. In use of commercial reagents and kits, if any, the indications attached thereto were referred to.
HL-60cells (supplied from ATCC) were seeded on a 96-well plate at 5×10^3cells/100μL/well and a test compound in two-fold dilution series from 10^−7M was added to the second to the twelfth rows (maximum concentration: the second row). The first row was used for blank. After incubation for 72 hours under a moisturized condition in the presence of 5% CO2 at 37° C. using a CO2 incubator, 10 μL of PBS containing 50 mM WST-1 (manufactured by Takara Bio) and 10 μM phorbol 12,13-didecanoate (manufactured by SIGMA) were added to each well followed by further incubation for 4 hours. Absorbance (reference wavelength: […]) at […] of the WST-1 formazane dye generated by conversion from WST-1 by oxygen radical produced from the differentiated HL-60 cells was measured by a Benchmark microplate reader (manufactured by BioRad). An absorbance meter control software MPM3 (manufactured by BioRad) was used and, from a concentration-absorbance curve, the 50%-maximal effective concentration (hereinafter, referred to as “EC50”) of each was determined by a logistic curve regression.

[2] = Action to increase the urinary excretion of calcium (2), intravenous administration; format: in vivo, SD male rats; details: intravenous 22.4 nmol/kg; for Calcium in Urine: urine collected within 24 hours after administration; for Ratio of Calcium in Urine (to control): urine within 24 hours, test compound/control group
Protocol: The compound of the invention mentioned in Example 42, 61 or 66, or maxacalcitol in saline containing 0.1% Triton X 100/5.6% DMSO (22.4 nmol/kg) was subjected to an intravenous administration to SD male rats (7 weeks of age) Saline containing 0.1% Triton X 100/5.6% DMSO was administered to a control group. The calcium concentration in urine collected within 24 hours after the administration was measured and the urinary excretion of calcium ([calcium concentration in urine]×[amount of urine]) and the ratio of urinary excretion of calcium based on the control group ([calcium amount in urine in administration of the test compound]/[calcium amount in urine in the control group]) were calculated.

[3] = Metabolic rate in human liver microsome; format: in vitro ADME; details: pooled human liver microsome 1 mg/mL protein, NADPH-regenerating system, 37° C., 2-60 minutes, HPLC
Protocol: The compounds of the invention mentioned in Examples and maxacalcitol were compared with each other with respect to the metabolic rate in human liver microsome.
As to the pooled human liver microsome (HHM-0323), those manufactured by Tissue Transformation Technologies were used. A 0.25 M potassium phosphate buffer (pH 7.4) (200 μL), 5 μL of a 250 μM solution of each compound to be tested in DMSO, 50 μL of an NADPH-regenerating system (where 20 mg of β-NADP^+, 70 mg of glucose-6-phosphate, 40 units of glucose-6-phosphate dehydrogenase and 20 mg of magnesium chloride were dissolved in 1 mL of distilled water) and 220 μL of distilled water were added to a microtube and the mixture was subjected to a preincubation for 5 minutes at 37° C. Reaction was started by an addition of 25 μL of human liver microsome (final concentration of protein: 1 mg/mL). Incubation was performed for 2, 10, 30 or 60 minutes and the reaction was stopped by an addition of 500 μL of acetonitrile. After centrifugation at 13,000 rpm for 5 minutes, each test compound in the supernatant (25 μL) was measured by HPLC under the following conditions.
Inertsil ODS-3 (4.6×150 mm; GL Science) was used as a column. With regard to the mobile phase, a solution A (acetonitrile/0.1% aqueous solution of ammonium acetate=10/90) and a solution B (acetonitrile/0.1% aqueous solution of ammonium acetate=90/10) were used under the linear gradient conditions mentioned in Tables 5 to 7. The column temperature, the flow rate and the wavelength for detection were set at 40° C., 1.0 mL/min. and UV 250 or 270 nm, respectively.
The compound mentioned in Example 38 was analyzed under the condition shown in Table 6; the compounds mentioned in Examples 55, 56, 68, 69, 72 and 73 were under the condition shown in Table 7; and the other compounds were under the condition shown in Table 5.
The compounds described in Examples 40, 43 to 48, 50, 55, 56, 58, 60, 61, 63 and 65 to 73 were analyzed under the condition of UV 250 nm; and the other compounds were under the condition of UV 270 nm.
From the HPLC test results as above, the metabolic rate of the test compound was calculated.

[4] = Action to increase the urinary excretion of calcium (1), percutaneous administration; format: in vivo, SD male rats; details: percutaneous 10 μg/200 μL/kg/day once a day for 4 days; for Calcium in Urine within 24 hours: accumulated excretion 0 to 24 hours; for Calcium in Urine within 48 hours: accumulated excretion 0 to 48 hours; for Calcium in Urine within 72 hours: accumulated excretion 0 to 72 hours; for Calcium in Urine within 96 hours: accumulated excretion 0 to 96 hours
Protocol: The compound of the invention mentioned in Example 1, 36, 43, 47, 48, 55 or 70 or maxacalcitol in ethanol containing 0.5% DMSO was repeatedly subjected to a percutaneous administration (10 μg/200 μL/kg/day) once a day for 4 days onto the back of SD male rats (7 weeks of age). Ethanol containing 0.5% DMSO was administered to a control group. The calcium concentration in urine collected every 24 hours was measured and multiplied by the amount of urine to calculate the urinary excretion of calcium. The calcium excretion in urine shown in Table 3 indicates the accumulated calcium excretion from 0 to 24 hours, from 0 to 48 hours, from 0 to 72 hours, and from 0 to 96 hours.

Row | Compound | EC50 [1] | Calcium in Urine [2] | Ratio of Calcium in Urine (to control) [2] | Metabolic Rate [3] | Calcium in Urine within 24 hours [4] | Calcium in Urine within 48 hours [4] | Calcium in Urine within 72 hours [4] | Calcium in Urine within 96 hours [4]
1 | CCC(O)(/C=C/C(=O)O[C@@H](C)[C@H]1CC[C@H]2/C(=C/C=C3C[C@@H](O)C[C@H](O)C3)CCC[C@]12C)CC [Compound of Example 42, (1R,3R,20S)-19-nor-20-[(2E)-4-ethyl-4-hydroxyhex-2-enoyloxy]-9,10-secopregna-5Z,7E-diene-1,3-diol] | 1.3 nM | 0.8 mg | 160% | 34 pmol/min/mg | – | – | – | –
2 | CC(OC(=O)CCC(C)(O)C(F)(F)F)C1=CCC2C(=CC=C3CC(O)CC(O)C3)CCCC12C [Compound of Example 47, (1R,3R,20S)-19-nor-20-(5,5,5-trifluoro-4-hydroxy-4-methylpentanoyloxy)-9,10-secopregna-5Z,7E,16-triene-1,3-diol] | 0.63 nM | – | – | 95 pmol/min/mg | 1.2 mg | 1.8 mg | 2.7 mg | 3.7 mg
3 | C=C1[C@H](O)CC(=C/C=C2\CCC[C@]3(C)C([C@H](C)OC(=O)CCC(C)(C)O)=CC[C@@H]23)C[C@H]1O [Compound of Example 48, (1R,3R,20S)-19-nor-2-methylene-20-(4-hydroxy-4-methylpentanoyloxy)-9,10-secopregna-5Z,7E,16-triene-1,3-diol] | 0.21 nM | – | – | 69 pmol/min/mg | 1.1 mg | 1.9 mg | 3.5 mg | 5.2 mg
4 | C=C1[C@H](O)CC(=C/C=C2\CCC[C@]3(C)C([C@H](C)OC(=O)CC[C@](C)(O)C(F)(F)F)=CC[C@@H]23)C[C@H]1O [Compound of Example 55, (1R,3R,20S)-19-nor-2-methylene-20-[(4S)-5,5,5-trifluoro-4-hydroxy-4-methylpentanoyloxy]-9,10-secopregna-5Z,7E,16-triene-1,3-diol] | 0.15 nM | – | – | 128 pmol/min/mg | 1.1 mg | 2.0 mg | 3.4 mg | 4.8 mg
5 | CC1[C@H](O)CC(=C/C=C2\CCC[C@]3(C)[C@@H]([C@H](C)OC(=O)CCC(C)(O)C(F)(F)F)CC[C@@H]23)C[C@H]1O (stereo partly drawn) [Compound of Example 61, (1R,2β,3R,20S)-2-methyl-19-nor-20-(5,5,5-trifluoro-4-hydroxy-4-methylpentanoyloxy)-9,10-secopregna-5Z,7E-diene-1,3-diol] | 1.2 nM | 0.6 mg | 120% | 188 pmol/min/mg | – | – | – | –
6 | CCC(O)(CC)CCC(=O)O[C@@H](C)[C@H]1CC[C@H]2/C(=C/C=C3C[C@@H](O)C(C)[C@H](O)C3)CCC[C@]12C (stereo partly drawn) [Compound of Example 66, (1R,2β,3R,20S) -2-methyl-19-nor-20-[4-ethyl-4-hydroxyhexanoyloxy]-9,10-secopregna-5Z,7E-diene-1,3-diol] | – | 0.5 mg | 100% | 116 pmol/min/mg | – | – | – | –
7 | (1S,3R,20S)-20-[(4S) or (4R)-5,5,5-trifluoro-4-hydroxy-4-methylpentanoyloxy]-9,10-secopregna-5Z,7E,10(19)-triene-1,3-diol [Compound of Example 36] | 0.41 nM | – | – | 82 pmol/min/mg | 1.0 mg | 1.7 mg | 2.8 mg | 4.5 mg
